{"source": "patent US9340549B2", "about": "“Oxazolidinone compounds and derivatives thereof” (priority 2012, dated 2016)", "data": [{"biological_target": "6×HIS-tankyrase 1 (1091-1325) (Homo sapiens (Human), UniProt O95271)", "sequence (O95271 1091-1325)": "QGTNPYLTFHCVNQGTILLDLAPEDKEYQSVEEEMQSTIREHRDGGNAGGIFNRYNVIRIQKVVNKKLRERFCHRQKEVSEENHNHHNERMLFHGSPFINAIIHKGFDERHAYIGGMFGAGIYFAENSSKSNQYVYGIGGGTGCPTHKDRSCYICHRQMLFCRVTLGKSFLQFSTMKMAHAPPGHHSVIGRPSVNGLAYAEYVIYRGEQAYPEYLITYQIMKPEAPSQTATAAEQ", "experiment": "biochemical", "assay_type": "biochemical", "conditions": "0.25 nM enzyme, 400 nM NAD, 60 minutes at room temperature; read-out: TNKS1 IP IC50", "units": {"IC50": "nM"}, "values": [{"smiles": "CC1(C)OC(=O)N([C@H]2C[C@H](c3nnc(-c4ccccc4)o3)C2)[C@H]1c1ccccc1", "note": "(single isomer, unassigned) [Example 177]", "IC50": 1020}, {"smiles": "CC1(C)OC(=O)N([C@H]2CC[C@H](c3cnc4[nH]ccc4c3)CC2)[C@H]1c1ccccc1", "note": "[Example 137, (S)-3-((1r,4s)-4-(1H-pyrrolo[2,3-b]pyridin-5-yl)cyclohexyl)-5,5-dimethyl-4-phenyloxazolidin-2-one]", "IC50": 218}, {"smiles": "Cc1ccc([C@H]2CC[C@@H](N3C(=O)OC(C)(C)[C@@H]3c3ccccc3)CC2)cn1", "note": "[Example 134, (S)-5,5-dimethyl-3-((1 s,4r)-4-(6-methylpyridin-3-yl)cyclohexyl)-4-phenyloxazolidin-2-one]", "IC50": "> 46300"}, {"smiles": "CC1(C)OC(=O)N([C@H]2C[C@H](c3nnc(-c4ccccc4)o3)C2)[C@@H]1c1ccccc1", "note": "(single isomer, unassigned) [Example 176]", "IC50": 3130}, {"smiles": "CC1(C)OC(=O)N([C@H]2CC[C@H](c3cccnc3)CC2)[C@H]1c1ccccc1", "note": "[Example 133, (S)-5,5-dimethyl-4-phenyl-3-((1r,4s)-4-(pyridin-3-yl)cyclohexyl)oxazolidin-2-one]", "IC50": 1380}, {"smiles": "CC1(C)OC(=O)N([C@H]2CC[C@@H](c3cnc4[nH]ccc4c3)CC2)[C@H]1c1ccccc1", "note": "[Example 136, (S)-3-((1s,4r)-4-(1H-pyrrolo[2,3-b]pyridin-5-yl)cyclohexyl)-5,5-dimethyl-4-phenyloxazolidin-2-one]", "IC50": 5.17}, {"smiles": "CC1(C)OC(=O)N([C@H]2CC[C@H](c3cc4ccncc4[nH]c3=O)CC2)[C@H]1c1ccccc1", "note": "[Example 139, (S)-5,5-dimethyl-3-((1r,4s)-4-(2-oxo-1,2-dihydro-1,7-naphthyridin-3-yl)cyclohexyl)-4-phenyloxazolidin-2-one]", "IC50": 11.5}, {"smiles": "Cc1ccc([C@H]2CC[C@H](N3C(=O)OC(C)(C)[C@@H]3c3ccccc3)CC2)cn1", "note": "[Example 135, (S)-5,5-dimethyl-3-((1r,4s)-4-(6-methylpyridin-3-yl)cyclohexyl)-4-phenyloxazolidin-2-one]", "IC50": 1380}]}, {"biological_target": "6×HIS-tankyrase 1 (1091-1325) (Homo sapiens (Human), UniProt O95271)", "experiment": "biochemical", "assay_type": "biochemical", "conditions": "[…] enzyme, 400 nM NAD, 60 minutes at room temperature; read-out: TNKS1 IP IC50", "units": {"IC50": "nM"}, "values": [{"smiles": "COc1ccccc1C(=O)N[C@H]1CC[C@H](N2C(=O)OC(C)(C)[C@@H]2c2ccccc2)CC1", "note": "[Example 163, N-((1S,4r)-4-((S)-5,5-dimethyl-2-oxo-4-phenyloxazolidin-3-yl)cyclohexyl)-2-methoxybenzamide]", "IC50": 220}, {"smiles": "CC1(C)OC(=O)N([C@H]2CC[C@H](NC(=O)c3nccs3)CC2)[C@H]1c1ccccc1", "note": "[Example 160, N-((1S,4r)-4-((S)-5,5-dimethyl-2-oxo-4-phenyloxazolidin-3-yl)cyclohexyl)thiazole-2-carboxamide]", "IC50": 1460}, {"smiles": "CC1(C)OC(=O)N([C@H]2CC[C@H](NC(=O)c3ccc4scnc4c3)CC2)[C@H]1c1ccccc1", "note": "[Example 150, N-((1S,4r)-4-((S)-5,5-dimethyl-2-oxo-4-phenyloxazolidin-3-yl)cyclohexyl)benzo[d]thiazole-5-carboxamide]", "IC50": 1540}, {"smiles": "CC1(C)OC(=O)N([C@H]2CC[C@H](NC(=O)c3cccc4[nH]ncc34)CC2)[C@H]1c1ccccc1", "note": "[Example 153, N-((1S,4r)-4-((S)-5,5-dimethyl-2-oxo-4-phenyloxazolidin-3-yl)cyclohexyl)-1H-indazole-4-carboxamide]", "IC50": 848}, {"smiles": "Cn1cc(C(=O)N[C@H]2CC[C@H](N3C(=O)OC(C)(C)[C@@H]3c3ccccc3)CC2)c2ccccc21", "note": "[Example 143, N-((1R,4r)-4-((R)-5,5-dimethyl-2-oxo-4-phenyloxazolidin-3-yl)cyclohexyl)-1-methyl-1H-indole-3-carboxamide]", "IC50": 225}, {"smiles": "CC1(C)OC(=O)N([C@H]2CC[C@H](NC(=O)c3nc4ccccc4[nH]3)CC2)[C@H]1c1ccccc1", "note": "[Example 157, N-((1S,4r)-4-((S)-5,5-dimethyl-2-oxo-4-phenyloxazolidin-3-yl)cyclohexyl)-1H-benzo[d]imidazole-2-carboxamide]", "IC50": 76.8}, {"smiles": "CC1(C)OC(=O)N(C2CC(c3nnc(-c4ccccc4)o3)C2)[C@@H]1c1ccccc1", "note": "(mixture of isomers) [Example 175, Mixture of (R)-5,5-dimethyl-4-phenyl-3-((1r,3R)-3-(5-phenyl-1,3,4-oxadiazol-2-yl)cyclobutyl)oxazolidin-2-one compound and (S)-5,5-dimethyl-4-phenyl-3-((1r,3S)-3-(5-phenyl-1,3,4-oxadiazol-2-yl)cyclobutyl)oxazolidin-2-one (1:1)]", "IC50": 1470}, {"smiles": "CC1(C)OC(=O)N([C@H]2CC[C@H](NC(=O)c3csc(-c4ncccn4)n3)CC2)[C@H]1c1ccccc1", "note": "[Example 183, N-((1S,4r)-4-((S)-5,5-dimethyl-2-oxo-4-phenyloxazolidin-3-yl)cyclohexyl)-2-(pyrimidin-2-yl)thiazole-4-carboxamide]", "IC50": 3.94}, {"smiles": "CC1(C)OC(=O)N([C@H]2CC[C@H](NC(=O)c3ccc4cc[nH]c4n3)CC2)[C@H]1c1ccccc1", "note": "[Example 147, N-((1S,4r)-4-((S)-5,5-dimethyl-2-oxo-4-phenyloxazolidin-3-yl)cyclohexyl)-1H-pyrrolo[2,3-b]pyridine-6-carboxamide]", "IC50": 26.4}, {"smiles": "CC1(C)OC(=O)N([C@H]2CC[C@H](NC(=O)c3ccc[nH]3)CC2)[C@H]1c1ccccc1", "note": "[Example 158, N-((1S,4r)-4-((S)-5,5-dimethyl-2-oxo-4-phenyloxazolidin-3-yl)cyclohexyl)-1H-pyrrole-2-carboxamide]", "IC50": 142}, {"smiles": "CC1(C)OC(=O)N([C@H]2CC[C@H](NC(=O)c3cn4ccccc4n3)CC2)[C@@H]1c1ccccc1", "note": "[Example 162, N-((1R,4r)-4-((R)-5,5-dimethyl-2-oxo-4-phenyloxazolidin-3-yl)cyclohexyl)imidazo[1,2-a]pyridine-2-carboxamide]", "IC50": 101}, {"smiles": "CC1(C)OC(=O)N([C@H]2CC[C@H](NC(=O)c3cnn(-c4ccccc4)c3)CC2)[C@H]1c1ccccc1", "note": "[Example 161, N-((1S,4r)-4-((S)-5,5-dimethyl-2-oxo-4-phenyloxazolidin-3-yl)cyclohexyl)-1-phenyl-1H-pyrazole-4-carboxamide]", "IC50": 350}, {"smiles": "CC1(C)OC(=O)N([C@H]2CC[C@H](NC(=O)c3ccccc3)CC2)[C@H]1c1ccccc1", "note": "[Example 141, N-((1S,4r)-4-((S)-5,5-dimethyl-2-oxo-4-phenyloxazolidin-3-yl)cyclohexyl)benzamide]", "IC50": 755}, {"smiles": "CC1(C)OC(=O)N(C2CC=C(c3cc4ccncc4[nH]c3=O)CC2)[C@H]1c1ccccc1", "note": "(stereo partly drawn) [Example 87, (4S)-5,5-dimethyl-3-(4-(2-oxo-1,2-dihydro-1,7-naphthyridin-3-yl)cyclohex-3-en-1-yl)-4-phenyloxazolidin-2-one]", "IC50": 6.91}, {"smiles": "CC1(C)OC(=O)N([C@H]2CC[C@H](NC(=O)c3csc(Br)n3)CC2)[C@H]1c1ccccc1", "note": "[Example 182, 2-bromo-N-((1S,4r)-4-((S)-5,5-dimethyl-2-oxo-4-phenyloxazolidin-3-yl)cyclohexyl)thiazole-4-carboxamide]", "IC50": 32.1}, {"smiles": "CC1(C)OC(=O)N([C@H]2CC[C@H](c3cnc4cc[nH]c4c3)CC2)[C@H]1c1ccccc1", "note": "[Example 171, (S)-3-((1r,4S)-4-(1H-pyrrolo[3,2-b]pyridin-6-yl)cyclohexyl)-5,5-dimethyl-4-phenyloxazolidin-2-one]", "IC50": 19}, {"smiles": "CC1(C)OC(=O)N([C@H]2CC[C@H](NC(=O)c3ccncc3)CC2)[C@H]1c1ccccc1", "note": "[Example 142, N-((1S,4r)-4-((S)-5,5-dimethyl-2-oxo-4-phenyloxazolidin-3-yl)cyclohexyl)isonicotinamide]", "IC50": 205}, {"smiles": "CC1(C)OC(=O)N([C@H]2CC[C@H](NC(=O)c3coc(-c4ccccc4)n3)CC2)[C@H]1c1ccccc1", "note": "[Example 164, N-((1S,4r)-4-((S)-5,5-dimethyl-2-oxo-4-phenyloxazolidin-3-yl)cyclohexyl)-2-phenyloxazole-4-carboxamide]", "IC50": 51.9}, {"smiles": "CC1(C)OC(=O)N([C@H]2CC[C@H](NC(=O)c3cnc4ccccc4c3)CC2)[C@@H]1c1ccccc1", "note": "[Example 155, N-((1R,4r)-4-((R)-5,5-dimethyl-2-oxo-4-phenyloxazolidin-3-yl)cyclohexyl)quinoline-3-carboxamide]", "IC50": 548}, {"smiles": "CC1(C)OC(=O)N([C@H]2CC[C@H](NC(=O)c3ccncn3)CC2)[C@H]1c1ccccc1", "note": "[Example 165, N-((1S,4r)-4-((S)-5,5-dimethyl-2-oxo-4-phenyloxazolidin-3-yl)cyclohexyl)pyrimidine-4-carboxamide]", "IC50": 260}, {"smiles": "CC1(C)OC(=O)N([C@H]2CC[C@H](NC(=O)c3cc4ccncc4[nH]3)CC2)[C@H]1c1ccccc1", "note": "[Example 149, N-((1S,4r)-4-((S)-5,5-dimethyl-2-oxo-4-phenyloxazolidin-3-yl)cyclohexyl)-1H-pyrrolo[2,3-c]pyridine-2-carboxamide]", "IC50": 34}, {"smiles": "C[C@@H]1OC(=O)N([C@H]2CC[C@H](n3c(=O)[nH]c4cc(C#N)ccc43)CC2)C1c1ccccc1", "note": "(stereo partly drawn) [Example 179, 1-((1R,4r)-4-((4R,5S)-5-methyl-2-oxo-4-phenyloxazolidin-3-yl)cyclohexyl)-2-oxo-2,3-dihydro-1H-benzo[d]imidazole-5-carbonitrile]", "IC50": 129}, {"smiles": "CC1(C)OC(=O)N([C@H]2CC[C@H](NC(=O)c3ccc4nccn4c3)CC2)[C@H]1c1ccccc1", "note": "[Example 159, N-((1S,4r)-4-((S)-5,5-dimethyl-2-oxo-4-phenyloxazolidin-3-yl)cyclohexyl)imidazo[1,2-a]pyridine-6-carboxamide]", "IC50": 1560}, {"smiles": "CC(C)c1cc(C(=O)N[C@H]2CC[C@H](N3C(=O)OC(C)(C)[C@@H]3c3ccccc3)CC2)[nH]n1", "note": "[Example 154, N-((1S,4r)-4-((S)-5,5-dimethyl-2-oxo-4-phenyloxazolidin-3-yl)cyclohexyl)-3-isopropyl-1H-pyrazole-5-carboxamide]", "IC50": 2320}, {"smiles": "CC1(C)OC(=O)N([C@H]2CC[C@H](NC(=O)c3csc(-c4ccncc4)n3)CC2)[C@H]1c1ccccc1", "note": "[Example 167, N-((1S,4r)-4-((S)-5,5-dimethyl-2-oxo-4-phenyloxazolidin-3-yl)cyclohexyl)-2-(pyridin-4-yl)thiazole-4-carboxamide]", "IC50": "> 46300"}]}]}
